Experimental data: PubChem BioAssay AID330 (DTP/NCI, 2004)
Where “and” joins values, the source holds several entries; their conditions need not be identical. Equal entries are not always repeated. Inconclusive results and toxic doses are left out.

Test system: P388 leukemia ip, CD2F1 mice, survival T/C
Test: NCI In Vivo Anticancer Drug Screen. Data for tumor model P388 Leukemia (intraperitoneal) in CD2F1 (CDF1) mice
Conditions: endpoint: median survival time, higher = longer survival
Method in brief: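 Mice carrying the transplanted tumor received test compound or vehicle. Survival was recorded in each group, and the value is the treated-group measurement divided by that of the vehicle-treated control group.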

[1] = dose: 25.0 mg/kg/injection, schedule: Q01DX009 (ip), vehicle: saline with Tween-80
[2] = dose: 60.0 mg/kg/injection, schedule: Q01DX005 (ip), vehicle: saline with Tween-80
[3] = dose: 120.0 mg/kg/injection, schedule: Q01DX005 (ip), vehicle: saline with Tween-80
[4] = dose: 240.0 mg/kg/injection, schedule: Q01DX005 (ip), vehicle: saline with Tween-80
[5] = dose: 50.0 mg/kg/injection, schedule: Q01DX009 (ip), vehicle: saline
[6] = dose: 100.0 mg/kg/injection, schedule: Q04DX003 (ip), vehicle: saline with Tween-80
[7] = dose: 12.5 mg/kg/injection, schedule: Q01DX009 (ip), vehicle: saline
[8] = dose: 25.0 mg/kg/injection, schedule: Q01DX009 (ip), vehicle: saline
[9] = dose: 50.0 mg/kg/injection, schedule: Q01DX005 (ip), vehicle: saline with Tween-80
[10] = dose: 200.0 mg/kg/injection, schedule: Q01DX005 (ip), vehicle: saline with Tween-80
[11] = dose: 6.25 mg/kg/injection, schedule: Q01DX009 (ip), vehicle: saline with Tween-80
[12] = dose: 12.5 mg/kg/injection, schedule: Q01DX009 (ip), vehicle: saline with Tween-80

C=C=CCN(C)Cc1ccccc1
T/C (dose: 25.0 mg/kg/injection, schedule: Q04DX002 (ip), vehicle: saline): 106 % of control | T/C (dose: 50.0 mg/kg/injection, schedule: Q04DX002 (ip), vehicle: saline): 93 % of control | T/C (dose: 100.0 mg/kg/injection, schedule: Q04DX002 (ip), vehicle: saline): 100 % of control and 101 % of control

O=C(O)c1cscn1.O=C(O)c1cscn1.O=C(O)c1cscn1.O=C(O)c1cscn1.[Cl][Rh][Cl]
T/C (dose: 50.0 mg/kg/injection, schedule: Q01DX005 (ip), vehicle: saline + alcohol): 101 % of control | T/C (dose: 100.0 mg/kg/injection, schedule: Q01DX005 (ip), vehicle: saline + alcohol): 107 % of control | T/C (dose: 200.0 mg/kg/injection, schedule: Q01DX005 (ip), vehicle: saline + alcohol): 104 % of control

Cc1cc(O)c(C2(C)CCC3CC32C)cc1Br (stereo unspecified)
T/C [1]: 97 % of control | T/C (dose: 50.0 mg/kg/injection, schedule: Q01DX009 (ip), vehicle: saline with Tween-80): 105 % of control | T/C (dose: 100.0 mg/kg/injection, schedule: Q01DX009 (ip), vehicle: saline with Tween-80): 107 % of control | T/C (dose: 200.0 mg/kg/injection, schedule: Q01DX009 (ip), vehicle: saline with Tween-80): 114 % of control

COc1ccc(C2COc3c(ccc(O)c3O)C2)cc1OC (stereo unspecified)
T/C [2]: 94 % of control | T/C [3]: 94 % of control | T/C [4]: 94 % of control

C=C1C(=O)C23C(O)CC4C(C)(C)[C@@H](OC(C)=O)CCC4(C)[C@]2(O)CCC1[C@@H]3O (stereo partly specified)
T/C (dose: 5.0 mg/kg/injection, schedule: Q01DX005 (ip), vehicle: Klucel (hydroxypropylcellulose) (HPC)): 106 % of control | T/C (dose: 10.0 mg/kg/injection, schedule: Q01DX005 (ip), vehicle: Klucel (hydroxypropylcellulose) (HPC)): 110 % of control | T/C (dose: 20.0 mg/kg/injection, schedule: Q01DX005 (ip), vehicle: Klucel (hydroxypropylcellulose) (HPC)): 112 % of control | T/C (dose: 40.0 mg/kg/injection, schedule: Q01DX005 (ip), vehicle: Klucel (hydroxypropylcellulose) (HPC)): 114 % of control

CC[C@@H]1CN2CCc3c([nH]c4ccccc34)[C@@](C(=O)OC)(c3cc4c(cc3OC)N(C)[C@H]3[C@@](O)(C(=O)OC)[C@H](OC(C)=O)[C@]5(CC)C=CCN6CC[C@]43[C@@H]65)C[C@H](C2)[C@H]1O
T/C (dose: 1.0 mg/kg/injection, schedule: Q01DX001 (ip), vehicle: water): 115 % of control | T/C (dose: 2.0 mg/kg/injection, schedule: Q01DX001 (ip), vehicle: water): 115 % of control | T/C (dose: 4.0 mg/kg/injection, schedule: Q01DX001 (ip), vehicle: water): 117 % of control and 118 % of control | T/C (dose: 32.0 mg/kg/injection, schedule: Q01DX001 (ip), vehicle: water): 174 % of control | T/C (dose: 64.0 mg/kg/injection, schedule: Q01DX001 (ip), vehicle: water): 150 % of control and 174 % of control

O=C(NCc1ccccn1)c1ccccc1
T/C [5]: 103 % of control | T/C (dose: 100.0 mg/kg/injection, schedule: Q01DX009 (ip), vehicle: saline): 90 % of control | T/C (dose: 200.0 mg/kg/injection, schedule: Q01DX009 (ip), vehicle: saline): 100 % of control

O=[N+]([O-])c1ccsc1SSc1sccc1[N+](=O)[O-]
T/C (dose: 25.0 mg/kg/injection, schedule: Q04DX003 (ip), vehicle: saline with Tween-80): 102 % of control | T/C (dose: 50.0 mg/kg/injection, schedule: Q04DX003 (ip), vehicle: saline with Tween-80): 102 % of control | T/C (dose: 100.0 mg/kg/injection, schedule: Q01DX001 (ip), vehicle: Klucel (hydroxypropylcellulose) (HPC)): 102 % of control | T/C [6]: 100 % of control | T/C (dose: 200.0 mg/kg/injection, schedule: Q01DX001 (ip), vehicle: Klucel (hydroxypropylcellulose) (HPC)): 102 % of control | T/C (dose: 400.0 mg/kg/injection, schedule: Q01DX001 (ip), vehicle: Klucel (hydroxypropylcellulose) (HPC)): 96 % of control

O=[N+]([O-])c1cccc(CNc2ccccc2)c1
T/C (dose: 100.0 mg/kg/injection, schedule: Q04DX003 (ip), vehicle: Klucel (hydroxypropylcellulose) (HPC)): 101 % of control | T/C (dose: 200.0 mg/kg/injection, schedule: Q04DX003 (ip), vehicle: Klucel (hydroxypropylcellulose) (HPC)): 101 % of control | T/C (dose: 400.0 mg/kg/injection, schedule: Q04DX003 (ip), vehicle: Klucel (hydroxypropylcellulose) (HPC)): 109 % of control

CN=C=O
T/C (dose: 6.25 mg/kg/injection, schedule: Q01DX005 (ip), vehicle: water): 99 % of control | T/C (dose: 12.5 mg/kg/injection, schedule: Q01DX005 (ip), vehicle: water): 92 % of control | T/C (dose: 25.0 mg/kg/injection, schedule: Q01DX005 (ip), vehicle: water): 98 % of control | T/C (dose: 50.0 mg/kg/injection, schedule: Q01DX005 (ip), vehicle: water): 101 % of control | T/C (dose: 100.0 mg/kg/injection, schedule: Q01DX005 (ip), vehicle: water): 108 % of control | T/C (dose: 200.0 mg/kg/injection, schedule: Q01DX005 (ip), vehicle: water): 99 % of control

C(=C\c1ccco1)/c1ccnnc1
T/C [7]: 97 % of control | T/C [8]: 109 % of control | T/C [5]: 108 % of control and 97 % of control

C[C@]12CC[C@@H]3c4ccc(OCCO)c([N+](=O)[O-])c4CC[C@H]3[C@@H]1CCC2=O
T/C [9]: 104 % of control | T/C (dose: 100.0 mg/kg/injection, schedule: Q01DX005 (ip), vehicle: saline with Tween-80): 104 % of control | T/C [10]: 97 % of control

CCCCCCCCCCCC(=O)OCCN(CCOC(=O)CCCCCCCCCCC)C(=O)COC(=O)CCCCCCCCCCC
T/C [11]: 96 % of control | T/C [12]: 98 % of control | T/C [1]: 100 % of control | T/C (dose: 100.0 mg/kg/injection, schedule: Q01DX009 (ip), vehicle: saline + Tween-80 + alcohol): 111 % of control | T/C (dose: 200.0 mg/kg/injection, schedule: Q01DX009 (ip), vehicle: saline + Tween-80 + alcohol): 107 % of control

Cc1c(-c2ccccc2)nc(N)n1C
T/C (dose: 5.0 mg/kg/injection, schedule: Q04DX002 (ip), vehicle: saline): 100 % of control | T/C (dose: 10.0 mg/kg/injection, schedule: Q04DX002 (ip), vehicle: saline): 99 % of control | T/C (dose: 20.0 mg/kg/injection, schedule: Q04DX002 (ip), vehicle: saline): 96 % of control

O=c1cc(-c2ccccc2)nc2cc(-c3ccco3)[nH]n12
T/C [2]: 102 % of control | T/C [3]: 107 % of control | T/C [4]: 111 % of control

COc1c(OC)c([N+](=O)[O-])c2c(c1[N+](=O)[O-])COC2=O
T/C (dose: 50.0 mg/kg/injection, schedule: Q01DX005 (ip), vehicle: Klucel (hydroxypropylcellulose) (HPC)): 104 % of control | T/C (dose: 100.0 mg/kg/injection, schedule: Q01DX005 (ip), vehicle: Klucel (hydroxypropylcellulose) (HPC)): 103 % of control

O=C1OC(Oc2ccccc2)c2cc3c(cc21)OCO3 (stereo unspecified)
T/C [2]: 90 % of control | T/C [3]: 90 % of control | T/C [4]: 99 % of control

Cc1ccc(NS(=O)(=O)c2ccc3ccccc3c2)c(C)c1
T/C [6]: 100 % of control | T/C (dose: 200.0 mg/kg/injection, schedule: Q04DX003 (ip), vehicle: saline with Tween-80): 100 % of control | T/C (dose: 400.0 mg/kg/injection, schedule: Q04DX003 (ip), vehicle: saline with Tween-80): 104 % of control

CC(=O)OCc1nc2ncnc(N)c2[nH]1
T/C (dose: 12.5 mg/kg/injection, schedule: Q01DX005 (ip), vehicle: distilled water + Tween-80): 99 % of control | T/C (dose: 25.0 mg/kg/injection, schedule: Q01DX005 (ip), vehicle: distilled water + Tween-80): 103 % of control | T/C (dose: 50.0 mg/kg/injection, schedule: Q01DX005 (ip), vehicle: distilled water + Tween-80): 108 % of control | T/C (dose: 100.0 mg/kg/injection, schedule: Q01DX005 (ip), vehicle: distilled water + Tween-80): 97 % of control | T/C (dose: 200.0 mg/kg/injection, schedule: Q01DX005 (ip), vehicle: distilled water + Tween-80): 97 % of control

CC1OC1C(=O)Sc1ccccc1 (stereo unspecified)
T/C [7]: 105 % of control | T/C [8]: 110 % of control | T/C [5]: 106 % of control

COc1cc(/C=N/OC(=O)Nc2ccccc2)cc(OC)c1OC
T/C [11]: 96 % of control | T/C [12]: 91 % of control | T/C [1]: 91 % of control

CSCCCNC(=O)c1csc(-c2csc(CCNC(=O)[C@@H](NSc3ccccc3[N+](=O)[O-])[C@@H](C)O)n2)n1
T/C (dose: 6.25 mg/kg/injection, schedule: Q01DX005 (ip), vehicle: saline with Tween-80): 100 % of control | T/C (dose: 12.5 mg/kg/injection, schedule: Q01DX005 (ip), vehicle: saline with Tween-80): 104 % of control | T/C (dose: 25.0 mg/kg/injection, schedule: Q01DX005 (ip), vehicle: saline with Tween-80): 95 % of control | T/C [9]: 87 % of control | T/C [10]: 87 % of control
